Measured values as given in article PMC7699461, “Alpha-Glucosidase and Alpha-Amylase Inhibitory Activities, Molecular Docking, and Antioxidant Capacities of Salvia aurita Constituents” (Antioxidants, 2020).
pIC50: −log10 of the molar value.

Key:
[1] = target: T1, alpha-glucosidase (Saccharomyces cerevisiae) (Saccharomyces cerevisiae, UniProt P53341); assay: biochemical
T1 construct: purchased Sigma-Aldrich, Cape Town, South Africa
Source text: (§1) EGCG (epigallocatechin gallate), Trolox (6-hydroxyl-2,5,7,8-tetramethylchroman-2-carboxylic acid), and other reagents such as TPTZ (2,4,6-tri[2-pyridyl]-s-triazine, iron (III) chloride hexahydrate, ABTS (2,2-azino-bis (3-ethylbenzo thiazoline-6-sulfonic acid) diammonium salt), AAPH (2,2-Azobis (2-methylpropionamidine) dihydrochloride), fluorescein sodium salt, potassium peroxodisulfate, copper sulfate, hydrogen peroxide, perchloric acid, alpha-glucosidase (Saccharomyces cerevisiae), alpha-amylase ([…]), and 3,5,di-nitro salicylic acid (DNS), sodium carbonate (Na2CO3), 4-nitro-phenyl-α-D-glucopyranoside (pNPG), di-sodium hydrogen phosphate, and sodium dihydrogen phosphate purchased from Sigma-Aldrich, Cape Town, South Africa. The organic solvents used in this study were supplied by Merck, Cape Town, South Africa. The NMR spectra were carried out on an Avance 400 MHz spectrometer (Bruker, Rheinstetten, Germany) using deuterated chloroform. Preparative HPLC was utilized for the purification of compounds using HPLC-grade methanol and distilled water.
Briefly, 20 μL of 5 mM substrate ([…]) was added to each well and left to incubate for 20 min at 37 °C. The reacting mixture was stopped after incubation by adding 0.1 M sodium carbonate (50 μL). The release of p-nitrophenol of the reacting mixture relating to the activity of the enzyme was read at a wavelength of 405 nm using a multiplate reader (Multiskan, Thermo Scientific).
All the measurements were repeated three times, and the IC50 was calculated using GraphPad Prism 5 version 5.01 (Graph pad software, Inc., La Jolla, CA, USA) statistical software. The data presented are means ± SD obtained from 96-well-plate readers for all in vitro experiments.

[2] = target: T2, alpha-amylase (procaine pancreas) (Sus scrofa, UniProt P00690); assay: Alpha-amylase inhibitory activity (starch/DNS); format: biochemical; conditions: mean ± SD, n = 3; samples 100–31.2 μg/mL; NA: not active within the evaluated concentrations
T2 construct: purchased Sigma-Aldrich, Cape Town, South Africa
T2 sequence (P00690 16-511): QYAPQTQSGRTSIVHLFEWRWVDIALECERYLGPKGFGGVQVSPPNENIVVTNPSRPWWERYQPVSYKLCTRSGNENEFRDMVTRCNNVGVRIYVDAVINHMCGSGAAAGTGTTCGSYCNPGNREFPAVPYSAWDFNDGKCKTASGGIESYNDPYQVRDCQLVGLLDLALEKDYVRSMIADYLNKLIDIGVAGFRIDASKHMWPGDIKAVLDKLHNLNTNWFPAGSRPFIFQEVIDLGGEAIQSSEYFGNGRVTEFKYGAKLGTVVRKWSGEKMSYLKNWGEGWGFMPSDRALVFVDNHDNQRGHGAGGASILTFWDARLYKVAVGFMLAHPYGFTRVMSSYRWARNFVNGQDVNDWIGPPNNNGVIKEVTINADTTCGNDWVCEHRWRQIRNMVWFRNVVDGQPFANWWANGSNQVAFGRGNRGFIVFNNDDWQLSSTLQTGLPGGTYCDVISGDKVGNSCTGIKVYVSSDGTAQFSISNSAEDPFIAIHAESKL
Source text: as §1
The mixture was allowed to incubate for 20 min at 37 °C before the addition of 1% soluble starch (10 μL) and further incubated for another 30 min. A color reagent DNS (100 μL) was added and boiled at 95 °C for 15 min. The change in color was read at a wavelength of […] using a multiplate reader.
The data presented are means ± SD obtained from 96-well-plate readers for all in vitro experiments.

[3] = Oxygen radical absorbance capacity (ORAC) assay; conditions: Trolox equivalent; mean ± SD of triplicate
Source text: The method of Cao and Prior (1998) was employed to measure oxygen radical absorbance capacity (ORAC) and as reported in our previous study. The method measures the scavenging potential of compounds against the decomposition of peroxyl radical of 2,2-azobis (2-amino-propane) dihydrochloride (AAPH) as peroxyradical (ORAC ROO^•). The antioxidant capacity of a compound is a measure of the fading fluorescence of a probe (fluorescein) using the area under the curve (AUC) plot in relation to a control blank. The florescence of the probe was programmed to be measured at every two minutes for 2 h after the addition of AAPH at the excitation wavelength and emission set at 485 and 530 nm, respectively. The ORAC results were estimated following a regression equation (Y = a + bX + Cx^2) between Trolox concentration (Y in μM) and the net area under the fluorescence decay curve (X). ORAC values were expressed as μM Trolox equivalent (TE)/mg of test sample.

[4] = Trolox equivalent absorbance capacity (TEAC) assay; conditions: mean ± SD of triplicate
Method: The TEAC assay was evaluated following the method of Pellegrini et al. (1999). The working solution containing 88 µL of K2S2O8 (140 mM) and 5 mL ABTS (7 mM) was kept for at least 16 h in the dark at 25 °C. The working solution was then diluted after 16 h with ethanol until the absorbance read approximately 2.0 (±0.1). The extract, purified compounds, or standard (25 µL) was mixed with 300 µL working solution and allowed to incubate in the dark for 30 min at room temperature. Trolox was used as the standard using a concentration range between 0 and 500 µM. The absorbance of the reaction was read at a wavelength of 734 nm using a multiplate reader.

[5] = Ferric-ion reducing antioxidant power (FRAP) assay; conditions: ascorbic acid equivalent; mean ± SD of triplicate
Method: The FRAP assay was assessed according to the method of Benzie and Strain (1996). FRAP reagent containing the mixture of acetate buffer (300 mM, pH 3.6), tripyridyl triazine (TPTZ) (10 mM in 40 mM HCl), and 20 mM FeCl3.6H2O in ratio 10:1:1 (v/v/v) was used. Extract, compounds, or standard (10 µL) was added to 300 µL FRAP reagent, incubated for 30 min in the dark at room temperature. The reacting mixture was read at a wavelength of 593 nm in a multiplate reader. Ascorbic acid was used as standard at varying concentrations of 0 to 1000 µM. The result was presented as a mean of independent triplicate experiments and expressed as µM ascorbic acid equivalents per milligram dry weight (µM AAE/g) of the test samples.

[6] = target: rat liver diacylglycerol acyltransferase 1 (DGAT1); design: method as in PMID 28034282; conditions: read-out: IC50 against rat liver DGAT1; cited from earlier work
[7] = tested on: intracellular de novo triglyceride synthesis; design: method as in PMID 28034282; conditions: without affecting cell viability; cited from earlier work

T1 sequence (P53341 whole entry): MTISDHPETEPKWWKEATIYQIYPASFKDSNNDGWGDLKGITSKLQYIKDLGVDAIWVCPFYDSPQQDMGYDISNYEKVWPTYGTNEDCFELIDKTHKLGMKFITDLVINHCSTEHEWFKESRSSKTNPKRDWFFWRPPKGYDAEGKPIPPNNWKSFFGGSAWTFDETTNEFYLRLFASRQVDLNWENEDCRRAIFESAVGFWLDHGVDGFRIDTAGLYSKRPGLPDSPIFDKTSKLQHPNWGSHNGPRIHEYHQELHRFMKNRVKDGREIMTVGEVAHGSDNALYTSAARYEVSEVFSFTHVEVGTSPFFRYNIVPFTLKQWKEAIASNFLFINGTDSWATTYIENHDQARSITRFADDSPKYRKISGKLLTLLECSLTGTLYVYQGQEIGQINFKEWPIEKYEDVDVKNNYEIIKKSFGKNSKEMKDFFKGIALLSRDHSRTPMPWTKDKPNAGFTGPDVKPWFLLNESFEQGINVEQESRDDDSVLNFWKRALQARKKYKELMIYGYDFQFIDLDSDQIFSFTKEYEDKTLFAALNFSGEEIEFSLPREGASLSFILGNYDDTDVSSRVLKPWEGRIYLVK

CC(C)c1cc2c(c(O)c1O)[C@@]13CCCC(C)(C)[C@@H]1C[C@@H]2OC3=O [Carnosol, carnosol]
pIC50 [1]: 3.80 | pIC50 [2]: 4.22 | ORAC [3]: 23.96 ± 0.01 mM TE/g | TEAC [4]: 0.33 ± 0.002 mM TE/g | FRAP [5]: 3.92 ± 0.002 mM AAE/g | pIC50 [6]: 4.20 | deactivation of intracellular de novo triglyceride synthesis [7]: 67.5–90.6%

CC(C)c1cc2c(c(O)c1O)[C@@]13CCCC(C)(C)[C@@H]1[C@H](OC3=O)[C@H]2O [Rosmanol, rosmanol]
pIC50 [1]: 4.32 | pIC50 [2]: 3.93 | ORAC [3]: 25.79 ± 0.01 mM TE/g | TEAC [4]: 2.06 ± 0.003 mM TE/g | FRAP [5]: 1.52 ± 0.002 mM AAE/g

COc1c(C(C)C)cc2c(c1O)[C@@]1(C(=O)O)CCCC(C)(C)[C@@H]1CC2 [12-methoxycarnosic acid]
pIC50 [1]: 3.97 | pIC50 [2]: 4.33 | ORAC [3]: 20.25 ± 0.01 mM TE/g | TEAC [4]: 0.34 ± 0.003 mM TE/g | FRAP [5]: 0.51 ± 0.003 mM AAE/g

COc1ccc(-c2cc(=O)c3c(O)cc(OC)cc3o2)cc1 [4,7-dimethylapigenin ether, 4,7-dimethylapigenin]
pIC50 [1]: 4.02 | ORAC [3]: 6.47 ± 0.01 mM TE/g | TEAC [4]: 3.19 ± 0.003 mM TE/g | FRAP [5]: 0.61 ± 0.006 mM AAE/g

O=C(O[C@@H]1Cc2c(O)cc(O)cc2O[C@@H]1c1cc(O)c(O)c(O)c1)c1cc(O)c(O)c(O)c1 [EGCG, epigallocatechin gallate, reference compound]
ORAC [3]: 3.98 ± 0.00 mM TE/g | TEAC [4]: 4.15 ± 0.02 mM TE/g | FRAP [5]: 7.53 ± 0.005 mM AAE/g
